Experimental data: patent publication US8193191B2, “Urotensin II receptor antagonists” (Janssen Pharmaceutica N.V., priority 2006, dated 2012)
Like-named read-outs stand apart in the source and are kept apart here.

What was measured:
[1] = biological target: T1, rat GPR14 (U-II receptor) (Rattus norvegicus, UniProt P49684); test: Rat UII Calcium Mobilization FLIPR Assay; type: cell-based; conditions: average value for the compound tested; read-out: Rat UII FLIPR Average IC50
T1 construct: expressed in transfected cells
T1 sequence (P49684 1-386): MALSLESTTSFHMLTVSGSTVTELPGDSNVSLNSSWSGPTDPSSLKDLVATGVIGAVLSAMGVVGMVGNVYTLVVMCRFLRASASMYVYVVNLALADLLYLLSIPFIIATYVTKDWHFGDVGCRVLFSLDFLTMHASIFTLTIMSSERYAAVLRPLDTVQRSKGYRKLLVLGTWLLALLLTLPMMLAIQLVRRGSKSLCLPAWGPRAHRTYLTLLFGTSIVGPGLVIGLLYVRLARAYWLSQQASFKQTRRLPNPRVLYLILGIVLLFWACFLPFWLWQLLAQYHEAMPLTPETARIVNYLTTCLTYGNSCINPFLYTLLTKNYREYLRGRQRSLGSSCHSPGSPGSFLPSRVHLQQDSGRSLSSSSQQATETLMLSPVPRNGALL
Method in brief: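 Fluorescent calcium signals were recorded at room temperature (23° C) by FLIPR. Stable rat U-II receptor CHO lines had been dye-loaded for 1 h at 37° C in pH 7.4 HBSS containing 20 mM HEPES, 0.1% BSA and 2.5 mM probenecid.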

[2] = biological target: T2, Human UII receptor, 6D9 human rhabdomyosarcoma cells (Homo sapiens, UniProt Q9UKP6); test: Human UII Calcium Mobilization Assay; type: cell-based; conditions: average value, FLIPR TETRA, read-out: Human UII Ca^+ Mobilization Average IC50
T2 construct: 6D9: isolated by dilution subcloning of RMS13 cells, ATCC® Number: CRL-2061; host or cells: 6D9 human rhabdomyosarcoma cells (subclone of RMS13)
T2 sequence (Q9UKP6 1-389): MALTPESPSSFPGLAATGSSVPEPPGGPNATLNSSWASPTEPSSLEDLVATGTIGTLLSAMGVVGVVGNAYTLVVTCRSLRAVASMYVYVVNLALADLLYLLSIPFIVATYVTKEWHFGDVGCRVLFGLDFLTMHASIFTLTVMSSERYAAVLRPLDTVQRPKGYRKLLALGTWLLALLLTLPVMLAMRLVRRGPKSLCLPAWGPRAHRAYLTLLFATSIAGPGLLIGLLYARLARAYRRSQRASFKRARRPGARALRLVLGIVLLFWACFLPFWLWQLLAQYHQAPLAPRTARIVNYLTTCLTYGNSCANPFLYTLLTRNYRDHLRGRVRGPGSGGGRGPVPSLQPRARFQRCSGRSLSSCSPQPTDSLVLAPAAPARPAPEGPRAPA
Experimental: 6D9 human rhabdomyosarcoma cells were seeded into tissue culture treated 384-well black-walled clear bottom plates (3712, Corning Incorporated, Corning, N.Y.) at 8,000 cells/well in 25 μL of culture medium, and maintained in an incubator (5% CO2 at 37° C.) for 22 hrs prior to the calcium mobilization assay. 25 μL of dye solution was added to the wells such that the final liquid volume before agonist/antagonist treatment was 50 μL for all assays. The cell plates were incubated at 37° C. for 45 minutes and the fluorescence intensity was measured on a Fluorometric Imaging Plate Reader (FLIPR^TETRA, Molecular Devices, Sunnyvale, Calif.).
Antagonist and agonist U-II were added at room temperature on the FLIPR^TETRA, and the fluorescence intensity before and after addition was measured over a period of 4 minutes. The dye incubation time and temperature as well as instrument setting was adjusted so the fluorescence intensity could be compared between plates on the same day. EC50 and IC50 were analyzed using GraphPad Prism 4 software (GraphPad Software Inc., San Diego, Calif.).
Materials and reagent Preparation: Human Rhabdomyosarcoma cells (6D9: isolated by dilution subcloning of RMS13 cells, ATCC® Number: CRL-2061, American Type Culture Collection ATCC, Manassas, Va.) was maintained in RPMI-1640 medium (30-2001, ATCC, Manassas, Va.) supplemented with 10% (v/v) Fetal Bovine Serum (SH30071.03, Hyclone, Logan, Utah).
Dye preparation: BD™ Calcium Assay Kit (80500-301, BD Biosciences, Rockville, Md.) was prepared according to the manufacture's instruction in 1× Hanks' balanced salt solution (HBSS, 21-023-CV, Mediatech, Inc. Herndon, Va.) containing 20 mM HEPES buffer (25-060-CI, Mediatech, Inc. Herndon, Va.). Final dye loading conditions included 1.25 mM probenecid (P36400, Invitrogen, Carlsbad, Calif.) and 0.01% FBS.
Urantide (PUT-3639-PI, Peptide International, Louisville, Ky.) was prepared in water at 5 mM. For assays, U-II agonist, U-II antagonist and urantide were diluted with HBSS/HEPES containing 0.01% FBS.
Test compounds were dissolved in DMSO at 10 mM concentration. The serial dilutions were carried out in HBSS/HEPES. The highest final DMSO concentration was at 0.1%.

[3] = biological target: T3, endogenous human UII receptor (Homo sapiens, UniProt Q9UKP6); test: Human Radioligand Binding Assay ((^125I)-U-II binding to human skeletal muscle myoblasts)
T3 sequence (Q9UKP6 1-389): T2 sequence (Q9UKP6 1-389)

Row | SMILES | IC50 [1] [nM] | IC50 [2] [nM] | Ki [3] [nM] | Ki ([3]; read-out: Human UII Average Binding Ki, average value, (^125I)-U-II binding to human skeletal muscle myoblasts (HSMM), 25° C., 3 h) [nM]
1 | COc1ccc(C(CCCNS(=O)(=O)c2c(C)noc2C)N2C(=O)c3cccc(N4CCN([C@H](C)c5ccccc5)CC4)c3C2=O)cc1OC (stereo partly drawn) [Cpd 112, 3,5-dimethyl-isoxazole-4-sulfonic acid (4-(3,4-dimethoxy-phenyl)-4-{1,3-dioxo-4-[4-(1R)-(1-phenyl-ethyl)-piperazin-1-yl]-1,3-dihydro-isoindol-2-yl}-butyl)-amide] | 69 | 1400 | 26 | 
2 | COc1ccc([C@@H](CCCNc2ncccn2)N2C(=O)c3cccc(N4CCN([C@H](C)c5ccccc5)CC4)c3C2=O)cc1OC [Cpd 145, (R)-2-[1-(3,4-dimethoxy-phenyl)-4-(pyrimidin-2-ylamino)-butyl]-4-[4-(1R)-(1-phenyl-ethyl)-piperazin-1-yl]-isoindole-1,3-dione] | 16 | 750 | 120 | 
3 | COc1ccc([C@@H](CCCNS(=O)(=O)c2cn(C)c(C)n2)N2C(=O)c3cccc(N4CCN([C@H](C)c5ccccc5)CC4)c3C2=O)cc1OC [Cpd 140, (R)-1,2-dimethyl-1H-imidazole-4-sulfonic acid (4-(3,4-dimethoxy-phenyl)-4-{1,3-dioxo-4-[4-(1R)-(1-phenyl-ethyl)-piperazin-1-yl]-1,3-dihydro-isoindol-2-yl}-butyl)-amide] | 14 | 220 |  | 16
4 | COc1ccc(C(CCCNS(=O)(=O)c2cc(C)oc2C)N2C(=O)c3cccc(N4CCN([C@H](C)c5ccccc5)CC4)c3C2=O)cc1OC (stereo partly drawn) [Cpd 99, 2,5-dimethyl-furan-3-sulfonic acid (4-(3,4-dimethoxy-phenyl)-4-{1,3-dioxo-4-[4-(1R)-(1-phenyl-ethyl)-piperazin-1-yl]-1,3-dihydro-isoindol-2-yl}-butyl)-amide] | 170 | 2700 | 620 | 
5 | COc1ccc([C@@H](CCCNC(=O)C(C)(C)C)N2C(=O)c3cccc(N4CCN([C@H](C)c5ccccc5)CC4)c3C2=O)cc1OC [Cpd 185, (R)-N-(4-(3,4-dimethoxy-phenyl)-4-{1,3-dioxo-4-[4-(1R)-(1-phenyl-ethyl)-piperazin-1-yl]-1,3-dihydro-isoindol-2-yl}-butyl)-2,2-dimethyl-propionamide] | 9.8 | 1000 | 23 | 
6 | COc1ccc([C@@H](CCCNS(=O)(=O)c2cccs2)N2C(=O)c3cccc(OCCCN(C)C)c3C2=O)cc1OC [Cpd 224, (R)-thiophene-2-sulfonic acid {4-(3,4-dimethoxy-phenyl)-4-[4-(3-dimethylamino-propoxy)-1,3-dioxo-1,3-dihydro-isoindol-2-yl]-butyl}-amide] | 340 | 2000 | > 300 | 
7 | CCN1CCN(c2cccc3c2C(=O)N([C@H](CCCOS(=O)(=O)N(C)C)c2ccc(OC)c(OC)c2)C3=O)CC1 [Cpd 209, (R)-dimethyl-sulfamic acid 4-(3,4-dimethoxy-phenyl)-4-[4-(4-ethyl-piperazin-1-yl)-1,3-dioxo-1,3-dihydro-isoindol-2-yl]-butyl ester] |  | 3800 | 290 | 
8 | COc1ccc([C@@H](CCCNS(=O)(=O)c2cnc(C)n2C)N2C(=O)c3cccc(N4CCN([C@H](C)c5ccccc5)CC4)c3C2=O)cc1OC [Cpd 127, (R)-2,3-dimethyl-3H-imidazole-4-sulfonic acid (4-(3,4-dimethoxy-phenyl)-4-{1,3-dioxo-4-[4-(1R)-(1-phenyl-ethyl)-piperazin-1-yl]-1,3-dihydro-isoindol-2-yl}-butyl)-amide] | 6.4 | 350 |  | 
9 | COc1ccc(CN2C(=O)c3cccc(N4CCN(C5C6CC7CC(C6)CC5C7)CC4)c3C2=O)cc1OC (stereo not drawn) [Cpd 87, 4-(4-adamantan-2-yl-piperazin-1-yl)-2-(3,4-dimethoxy-benzyl)-isoindole-1,3-dione] | 480 | 1500 |  | 
